In patent publication US7678384B2, “Vinylaminopyrazole derivatives as pesticides” (Merial Limited, priority 2004, dated 2010):

How the values were obtained:
Format in all cases: in vivo
[1] = tested on: Ctenocephalides felis (Cat flea); assay: Method A: screening method to test systemicity against Ctenocephalides felis (artificial dog test, treated bovine blood); details: test concentration 1 ppm in bovine blood; 10 adults; assessment at 24 and 48 hours
Method: METHOD A: Screening method to test systemicity of compounds against Ctenocephalides felis (Cat flea)
A test container was filled with 10 adults of Ctenocephalides felis. A glass cylinder was closed on one end with parafilm and placed on top of the test container. The test compound solution was then pipetted into bovine blood and added to the glass cylinder. The treated Ctenocephalides felis were held in this artificial dog test (blood 37° C., 40-60% relative humidity; Ctenocephalides felis 20-22° C., 40-60% relative humidity) and assessment performed at 24 and 48 hours after application.

[2] = tested on: Rhipicephalus sanguineus (Brown dog tick); assay: Method D: screening method to test contact activity against Rhipicephalus sanguineus; details: test concentration 10 ppm; filter paper contact; L1 larvae; 24 hours after application
Method: METHOD D: Screening method to test contact activity against Rhipicephalus sanguineus (Brown dog tick)
Solutions of the test compounds were dropped onto filter paper, dried and the filter paper placed into test tubes and infested with 20-30 larvae (L1) of Rhipicephalus sanguineus and the tubes closed with a clip. The treated Rhipicephalus sanguineus were held in a climate chamber (25° C., 90% RH) and the percentage efficacy assessed 24 hours after application in comparison with the untreated control.

[3] = tested on: tobacco budworm (Heliothis virescens); assay: Method E: Heliothis virescens screen; details: concentration 100 ppm; egg dip; after 6 days
Method: METHOD E: Heliothis Virescens Screen
A Petri dish whose bottom is covered with filter paper and which contains about 5 ml of culture medium is prepared. Pieces of filter paper with about 30, 24-hour-old eggs of the tobacco budworm (Heliothis virescens) are dipped into an aqueous solution of the formulated preparation to be examined for about 5 seconds and subsequently placed into the Petri dish. A further 200 μl of the aqueous solution are dropped over the culture medium. The Petri dish is closed and then kept at about 25° C. in a climatized chamber. After 6 days storage, the effect of the preparation on the eggs and the larvae which may have hatched from these is determined. Compound number 1-1 gave at least 50% control of tobacco budworm with the concentration at 100 ppm.

[4] = tested on: Frankliniella occidentalis; assay: Method F: Thrip (Frankliniella occidentalis) screen; details: concentration 100 ppm; French bean leaf dip; mixed population; after 7 days
Method: METHOD F: Thrip (Frankliniella occidentalis) Screen
French bean plants are cut at the base of the stem and transferred into bottles filled with tap water. The leaves are then dipped for 5 seconds into an aqueous solution of the formulated preparation to be examined. After the solution has run off, the leaves are infested with 20-30 individuals of a mixed population of flower thrips (Frankliniella occidentalis) and then stored in a controlled-environment cabinet at approx. 25° C. After 7 days storage, the effect of the preparation on the thrips is determined. Compound number 1-1 gave at least 70% control of Frankliniella occidentalis at the concentration of 100 ppm.

[5] = tested on: Diabrotica undecimpunctata (southern corn rootworm); assay: Method B: Diabrotica undecimpunctata (southern corn rootworm) screen; details: concentration 10 ppm; eggs on filter paper with maize seed; assessed 6 days after application
Description: METHOD B: Diabrotica undecimpunctata (southern corn rootworm) screen
Two days before application, seeds of maize were soaked in water under warm conditions to elicit fast germination. One day before application, eggs of Diabrotica undecimpunctata were transferred to one half of a Japanese filter paper placed in a plastic petri dish. Afterwards, a sprouted maize seed was placed on a moistened pad beside the filter paper. Three drops of 200 microlitres of test compound solution were carefully pipetted onto the egg. The remainder of the solution was placed on the maize and then the Petri dish was closed. The treated eggs in the Petri dishes were held in a climate chamber for 6 days. The compound efficacy (percentage of dead eggs and/or larvae in comparison to untreated control) was assessed 6 days after application using a binocular microscope. Compound number 1-1 gave at least 60% control with the concentration at 10 ppm.

[6] = tested on: Nilaparvata lugens; assay: Method C: Rice leafhopper screen; details: foliar, 144 h, read-out: control of Nilaparvata lugens (mortality among leafhopper larvae)
Method: METHOD C: Rice leafhopper screen
The leaves of rice plants are dipped for 5 seconds into an aqueous solution of the formulated preparation to be examined. After the solution has run off, the rice plants are placed in a Petri dish and populated with about 20 larvae (L3 stage) of the rice leafhopper species Nilaparvata lugens. The Petri dish is closed and then stored in a climatized chamber (16 hours of light/day, 25° C., 40-60% relative atmospheric humidity). After 6 days storage, the mortality among the leafhopper larvae is determined. Compound number 1-1 gave at least 60% control of Nilaparvata lugens with the concentration of 10 ppm.

SMILES: C=CN(C)c1c(S(=O)(=O)C(F)(F)F)c(C#N)nn1-c1c(Cl)cc(C(F)(F)F)cc1Cl [Compound 1-1, 1-[2,6-dichloro-4-(trifluoromethyl)phenyl]-5-[methyl(vinyl)amino]-4-[(trifluoromethyl)sulfonyl]-1H-pyrazole-3-carbonitrile]
- control of Ctenocephalides felis [1]: at least 50%
- control (percentage efficacy in comparison with untreated control) [2]: at least 50%
- control of tobacco budworm (effect on eggs and larvae) [3]: at least 50%
- control of Frankliniella occidentalis [4]: at least 70%
- control (percentage of dead eggs and/or larvae in comparison to untreated control) [5]: at least 60%
- mortality at 10 ppm [6]: ≥ 60%

SMILES: CN(CCI)c1c(S(=O)(=O)C(F)(F)F)c(C#N)nn1-c1c(Cl)cc(C(F)(F)F)cc1Cl [Intermediate Example 2, 1-[2,6-dichloro-4-(trifluoromethyl)phenyl]-5-[(2-iodoethy)(methyl)amino]-4-[(trifluoromethyl)sulfonyl]-1H-pyrazole-3-carbonitrile]
- control of Ctenocephalides felis [1]: at least 70%
